Test results published in patent US12173018B2, “Penicillin-binding protein inhibitors” (priority 2018, dated 2024).
≈ marks a conversion by molar mass, not a printed value. Where two headings read alike, the source gives them in different places.

How the values were obtained:
[1] = biological target: E. coli PBP3 (Escherichia coli (strain K12), UniProt P0AD68); test: E. coli PBP3 Bocillin-FL fluorescence polarization competition binding assay
How it was run: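 This was a fluorescence polarization competition with fluorescent penicillin Bocillin-FL (0.1 μM final), read at 490/520 nm for 60 min immediately after its addition. The buffer was Hepes pH 8.0 with 300 mM NaCl and 5% glycerol, containing 1.5 μM PBP and test inhibitor up to 1000 μM. Potency is expressed as EC50 for reducing probe binding.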

[2] = test system: E. coli AG100; test: Broth microdilution MIC, E. coli AG100 (wild-type parent); assay type: cell-based; settings: Escherichia coli; wild-type parent E. coli AG100, broth microdilution; read-out: MIC E. coli AG100
How it was run: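 Starting inoculum of 5×10^5 CFU/mL, from colonies grown 3-5 h in Mueller-Hinton broth with divalent cations, added to two-fold compound dilution series.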

[3] = test system: P. aeruginosa (ΔmexAB-oprM); test: microbe, parasite or virus in culture; assay type: cell-based; settings: Pseudomonas aeruginosa, read-out: MIC P. aeruginosa ΔmexAB-OprM
How it was run: (§1)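 CLSI broth microdilution in cation-supplemented Mueller-Hinton broth; 2-fold compound dilutions inoculated at 5×10^5 CFU/mL from a 3-5 h log-phase culture. Plates incubated 16-20 hours at 37° C; MIC read visually as lowest concentration with no growth.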

[4] = test system: K. pneumoniae 848844; test: microbe, parasite or virus in culture; assay type: cell-based, Klebsiella pneumoniae; settings: Klebsiella pneumoniae; K. pneumoniae 848844 producing SHV-11 and KPC-2; read-out: MIC K. pneumoniae 848844
How it was run: as §1

[5] = test system: N. gonorrhoeae FA1090; test: Liquid broth MIC, N. gonorrhoeae FA1090; assay type: cell-based; settings: Neisseria gonorrhoeae
How it was run: (§2)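 MIC taken by eye as the lowest well lacking growth after 40-42 h at 36° C under 5% CO2. Compounds were 2-fold serially diluted; the starting inoculum of 5×10^5 CFU/mL came from direct colony suspensions grown on Kellogg's-supplemented GC agar.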

[6] = test system: N. gonorrhoeae FA19; test: Liquid broth MIC, N. gonorrhoeae FA19; assay type: cell-based; settings: Neisseria gonorrhoeae
How it was run: as §2

[7] = fluorescence polarization competition binding with Bocillin-FL, read-out: E. coli K12 PBP3 Potency
[8] = N. gonorrhoeae FA1090, liquid broth, read-out: Minimum Inhibitory Concentration, N. gonorrhoeae FA1090
[9] = N. gonorrhoeae FA19, liquid broth, read-out: Minimum Inhibitory Concentration, N. gonorrhoeae FA19

E. coli PBP3, sequence (P0AD68 whole entry): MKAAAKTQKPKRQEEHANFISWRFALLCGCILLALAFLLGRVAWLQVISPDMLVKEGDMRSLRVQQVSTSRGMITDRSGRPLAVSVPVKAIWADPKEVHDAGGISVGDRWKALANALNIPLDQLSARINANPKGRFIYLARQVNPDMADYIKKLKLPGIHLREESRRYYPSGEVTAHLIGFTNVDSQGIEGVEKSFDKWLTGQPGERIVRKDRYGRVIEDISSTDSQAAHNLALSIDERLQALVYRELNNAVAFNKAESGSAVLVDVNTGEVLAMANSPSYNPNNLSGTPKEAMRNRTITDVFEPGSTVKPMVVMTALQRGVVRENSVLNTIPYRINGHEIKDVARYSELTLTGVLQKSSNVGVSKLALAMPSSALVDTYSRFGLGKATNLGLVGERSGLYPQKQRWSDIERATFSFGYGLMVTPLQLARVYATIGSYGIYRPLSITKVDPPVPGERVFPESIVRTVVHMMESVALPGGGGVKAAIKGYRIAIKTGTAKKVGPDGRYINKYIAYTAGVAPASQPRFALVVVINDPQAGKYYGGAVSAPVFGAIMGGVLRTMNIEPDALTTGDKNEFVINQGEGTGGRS

Compound	EC50 [1, 7]	MIC [2]	MIC [3]	MIC [4]	MIC [5, 8]	MIC [6, 9]	EC50 [1]	MIC ([5]; FA1090, read-out: Minimum Inhibitory Concentration, N. gonorrhoeae FA1090)	MIC ([6]; FA19, read-out: Minimum Inhibitory Concentration, N. gonorrhoeae FA19)
CCN1C[C@H](C)N(C(=O)NC(C(=O)N[C@H]2Cc3ccc(F)c(C(=O)O)c3OB2O)c2ncc(O)cc2F)C(=O)C1=O (stereo partly drawn) [Example 208, (3R)-3-(2-((S)-4-ethyl-6-methyl-2,3-dioxopiperazine-1-carboxamido)-2-(3-fluoro-5-hydroxypyridin-2-yl)acetamido)-7-fluoro-2-hydroxy-3,4-dihydro-2H-benzo[e][1,2]oxaborinine-8-carboxylic acid]	< 30 µM	8 to 16 µg/mL	32 to 64 µg/mL	32 to 64 µg/mL	0.25 to 0.5 µg/mL (≈ 0.435 to 0.869 µM)	4 to 8 µg/mL (≈ 6.95 to 13.9 µM)	–	–	–
CCN1CCN(C(=O)NC(C(=O)N[C@H]2Cc3cccc(C(=O)O)c3OB2O)c2ccc(S(N)(=O)=O)c(F)c2)C(=O)C1=O (stereo partly drawn) [Example 210, (3R)-3-(2-(4-ethyl-2,3-dioxopiperazine-1-carboxamido)-2-(3-fluoro-4-sulfamoylphenyl)acetamido)-2-hydroxy-3,4-dihydro-2H-benzo[e][1,2]oxaborinine-8-carboxylic acid]	–	32 to 64 µg/mL	2 to 4 µg/mL	> 128 µg/mL	< 0.125 µg/mL	1 to 2 µg/mL (≈ 1.65 to 3.3 µM)	30 to 500 µM	–	–
CCN1CCN(C(=O)NC(C(=O)N[C@H]2Cc3cccc(C(=O)O)c3OB2O)c2ccc(C(=O)O)cc2)C(=O)C1=O (stereo partly drawn) [Example 212, (3R)-3-(2-(4-carboxyphenyl)-2-(4-ethyl-2,3-dioxopiperazine-1-carboxamido)acetamido)-2-hydroxy-3,4-dihydro-2H-benzo[e][1,2]oxaborinine-8-carboxylic acid]	< 30 µM	32 to 64 µg/mL	8 to 16 µg/mL	> 128 µg/mL	< 0.125 µg/mL	0.25 to 0.5 µg/mL (≈ 0.453 to 0.905 µM)	–	–	–
O=C(O)c1cccc2c1OB(O)[C@@H](NC(=O)C(NC(=O)N1CCN(CCF)C(=O)C1=O)c1ccc(S(=O)(=O)NCCO)cc1)C2 (stereo partly drawn) [Example 213, (3R)-3-(2-(4-(2-fluoroethyl)-2,3-dioxopiperazine-1-carboxamido)-2-(4-(N-(2-hydroxyethyl)sulfamoyl)phenyl)acetamido)-2-hydroxy-3,4-dihydro-2H-benzo[e][1,2]oxaborinine-8-carboxylic acid]	–	32 to 64 µg/mL	8 to 16 µg/mL	> 128 µg/mL	0.25 to 0.5 µg/mL (≈ 0.385 to 0.77 µM)	16 to 32 µg/mL (≈ 24.6 to 49.3 µM)	30 to 500 µM	–	–
CCN1CCN(C(=O)NC(C(=O)N[C@H]2Cc3ccc(Cl)c(C(=O)O)c3OB2O)c2ncc(O)cc2F)C(=O)C1=O (stereo partly drawn) [Example 216, (3R)-7-chloro-3-(2-(4-ethyl-2,3-dioxopiperazine-1-carboxamido)-2-(3-fluoro-5-hydroxypyridin-2-yl)acetamido)-2-hydroxy-3,4-dihydro-2H-benzo[e][1,2]oxaborinine-8-carboxylic acid]	< 30 µM	32 to 64 µg/mL	32 to 64 µg/mL	32 to 64 µg/mL	0.25 to 0.5 µg/mL (≈ 0.433 to 0.865 µM)	1 to 2 µg/mL (≈ 1.73 to 3.46 µM)	–	–	–
CCN1CCN(C(=O)NC(C(=O)N[C@H]2Cc3ccc(Cl)c(C(=O)O)c3OB2O)c2ccc(O)c(O)c2Cl)C(=O)C1=O (stereo partly drawn) [Example 217, (3R)-7-chloro-3-(2-(2-chloro-3,4-dihydroxyphenyl)-2-(4-ethyl-2,3-dioxopiperazine-1-carboxamido)acetamido)-2-hydroxy-3,4-dihydro-2H-benzo[e][1,2]oxaborinine-8-carboxylic acid]	–	2 to 4 µg/mL	< 0.25 µg/mL	2 to 4 µg/mL	1 to 2 µg/mL (≈ 1.64 to 3.28 µM)	4 to 8 µg/mL (≈ 6.57 to 13.1 µM)	30 to 500 µM	–	–
CC[C@H]1CN(CC)C(=O)C(=O)N1C(=O)NC(C(=O)N[C@H]1Cc2cccc(C(=O)O)c2OB1O)c1ncc(O)cc1F (stereo partly drawn) [Example 218, (3R)-3-(2-((S)-4,6-diethyl-2,3-dioxopiperazine-1-carboxamido)-2-(3-fluoro-5-hydroxypyridin-2-yl)acetamido)-2-hydroxy-3,4-dihydro-2H-benzo[e][1,2]oxaborinine-8-carboxylic acid]	< 30 µM	32 to 64 µg/mL	32 to 64 µg/mL	> 128 µg/mL	0.25 to 0.5 µg/mL (≈ 0.438 to 0.875 µM)	16 to 32 µg/mL (≈ 28 to 56 µM)	–	–	–
C[C@H]1CN(CCO)C(=O)C(=O)N1C(=O)NC(C(=O)N[C@H]1Cc2cccc(C(=O)O)c2OB1O)c1ccc(O)c(O)c1Cl (stereo partly drawn) [Example 224, (3R)-3-(2-(2-chloro-3,4-dihydroxyphenyl)-2-((S)-4-(2-hydroxyethyl)-6-methyl-2,3-dioxopiperazine-1-carboxamido)acetamido)-2-hydroxy-3,4-dihydro-2H-benzo[e][1,2]oxaborinine-8-carboxylic acid]	–	2 to 4 µg/mL	0.5 to 1 µg/mL	2 to 4 µg/mL	1 to 2 µg/mL (≈ 1.65 to 3.31 µM)	> 64 µg/mL	30 to 500 µM	–	–
NCCN1CCN(C(=O)N[C@@H](C(=O)N[C@H]2Cc3cccc(C(=O)O)c3OB2O)c2ncc(O)cc2F)C(=O)C1=O [Example 225, (R)-3-((R)-2-(4-(2-aminoethyl)-2,3-dioxopiperazine-1-carboxamido)-2-(3-fluoro-5-hydroxypyridin-2-yl)acetamido)-2-hydroxy-3,4-dihydro-2H-benzo[e][1,2]oxaborinine-8-carboxylic acid]	< 30 µM	8 to 16 µg/mL	2 to 4 µg/mL	32 to 64 µg/mL	0.25 to 0.5 µg/mL (≈ 0.448 to 0.896 µM)	4 to 8 µg/mL (≈ 7.16 to 14.3 µM)	–	–	–
NCCN1CCN(C(=O)N[C@@H](C(=O)N[C@H]2Cc3ccc(F)c(C(=O)O)c3OB2O)c2ccc(O)c(O)c2Cl)C(=O)C1=O [Example 227, (R)-3-((R)-2-(4-(2-aminoethyl)-2,3-dioxopiperazine-1-carboxamido)-2-(2-chloro-3,4-dihydroxyphenyl)acetamido)-7-fluoro-2-hydroxy-3,4-dihydro-2H-benzo[e][1,2]oxaborinine-8-carboxylic acid]	–	< 0.25 µg/mL	< 0.25 µg/mL	0.5 to 1 µg/mL	1 to 2 µg/mL (≈ 1.65 to 3.29 µM)	4 to 8 µg/mL (≈ 6.58 to 13.2 µM)	30 to 500 µM	–	–
CC(=O)NCCN1CCN(C(=O)NC(C(=O)N[C@H]2Cc3cccc(C(=O)O)c3OB2O)c2ccc(O)c(O)c2Cl)C(=O)C1=O (stereo partly drawn) [Example 228, (3R)-3-(2-(4-(2-acetamidoethyl)-2,3-dioxopiperazine-1-carboxamido)-2-(2-chloro-3,4-dihydroxyphenyl)acetamido)-2-hydroxy-3,4-dihydro-2H-benzo[e][1,2]oxaborinine-8-carboxylic acid]	–	2 to 4 µg/mL	< 0.25 µg/mL	2 to 4 µg/mL	1 to 2 µg/mL (≈ 1.58 to 3.17 µM)	> 64 µg/mL	30 to 500 µM	–	–
CS(=O)(=O)NCCN1CCN(C(=O)NC(C(=O)N[C@H]2Cc3cccc(C(=O)O)c3OB2O)c2ccc(O)c(O)c2Cl)C(=O)C1=O (stereo partly drawn) [Example 229, (3R)-3-(2-(2-chloro-3,4-dihydroxyphenyl)-2-(4-(2-(methylsulfonamido)ethyl)-2,3-dioxopiperazine-1-carboxamido)acetamido)-2-hydroxy-3,4-dihydro-2H-benzo[e][1,2]oxaborinine-8-carboxylic acid]	< 30 µM	2 to 4 µg/mL	< 0.25 µg/mL	2 to 4 µg/mL	4 to 8 µg/mL (≈ 5.99 to 12 µM)	> 64 µg/mL	–	–	–
NCCN1CCN(C(=O)N[C@@H](C(=O)N[C@H]2Cc3ccc(F)c(C(=O)O)c3OB2O)c2ncc(O)cc2F)C(=O)C1=O [Example 230, (R)-3-((R)-2-(4-(2-aminoethyl)-2,3-dioxopiperazine-1-carboxamido)-2-(3-fluoro-5-hydroxypyridin-2-yl)acetamido)-7-fluoro-2-hydroxy-3,4-dihydro-2H-benzo[e][1,2]oxaborinine-8-carboxylic acid]	< 30 µM	8 to 16 µg/mL	2 to 4 µg/mL	32 to 64 µg/mL	1 to 2 µg/mL (≈ 1.74 to 3.47 µM)	4 to 8 µg/mL (≈ 6.94 to 13.9 µM)	–	–	–
NCCCN1CCN(C(=O)NC(C(=O)N[C@H]2Cc3cccc(C(=O)O)c3OB2O)c2ccc(O)c(O)c2Cl)C(=O)C1=O (stereo partly drawn) [Example 233, (3R)-3-(2-(4-(3-aminopropyl)-2,3-dioxopiperazine-1-carboxamido)-2-(2-chloro-3,4-dihydroxyphenyl)acetamido)-2-hydroxy-3,4-dihydro-2H-benzo[e][1,2]oxaborinine-8-carboxylic acid]	–	0.5 to 1 µg/mL	< 0.25 µg/mL	2 to 4 µg/mL	1 to 2 µg/mL (≈ 1.66 to 3.31 µM)	16 to 32 µg/mL (≈ 26.5 to 53 µM)	30 to 500 µM	–	–
CCN1C[C@H](CO)N(C(=O)NC(C(=O)N[C@H]2Cc3cccc(C(=O)O)c3OB2O)c2ncc(O)cc2F)C(=O)C1=O (stereo partly drawn) [Example 234, (3R)-3-(2-((R)-4-ethyl-6-(hydroxymethyl)-2,3-dioxopiperazine-1-carboxamido)-2-(3-fluoro-5-hydroxypyridin-2-yl)acetamido)-2-hydroxy-3,4-dihydro-2H-benzo[e][1,2]oxaborinine-8-carboxylic acid]	< 30 µM	> 128 µg/mL	32 to 64 µg/mL	> 128 µg/mL	–	–	–	0.25 to 0.5 µg/mL (≈ 0.436 to 0.872 µM)	16 to 32 µg/mL (≈ 27.9 to 55.8 µM)
